In PubChem BioAssay AID1963829 (Molecular Pharmacology Branch, DTP, NCI, 2024):

System: 935938-334-R-J1-PDC complex spheroid viability
Test: Anticancer human tumor 935938-334-R-J1-PDC patient-derived small intestine adenocarcinoma cell line growth inhibition [POLQ]
Conditions: for IC50: curve of first compound; for viability, T/C: stronger effect = lower value; active = viability on the fitted dose curve at most 10% of control; inactive = the rest
Protocol: Multicellular complex tumor spheroid response to Polymerase (POL) inhibitors (novobiocin, ART-558, RP6685) in combination with a variety of drugs and investigational agents in selected tumor cell lines
The POL inhibitors (novobiocin, ART-558, and RP6685) were evaluated both individually and in combination with standard of care and investigational anticancer small molecules within a complex spheroid model of solid tumors. . Complex spheroids include a stromal component modeled by human endothelial cells (HUVEC) and fibroblasts modeled by human mesenchymal stem cells (MSCs). The concentration ranges selected for each drug and investigational agent were based upon clinically achievable concentrations if the clinical Cmax of the agent was known.
Compounds. The drugs and investigational agents: novobiocin (NSC847541), ART-558 (NSC835418), RP-6685 (NSC848927), peposertib (NSC802822), ceralasertib (NSC780249), elimusertib (NSC800525), camonsertib (NSC841442), AZD-1390 (NSC803789), olaparib (NSC753686), talazoparib (NSC767125), rucaparib (NSC756644), sotorasib (NSC818433), MRTX-1133 (NSC836407), SN-38 (NSC673596), topotecan (NSC609699), epotoside (NSC141540), doxorubicin (NSC123127), gemcitabine (NSC613327), 5-fluorouracil (NSC19893), paclitaxel (NSC125973), vemurafenib (NSC761431), MSA-2 (NSC828583), SN-011 (NSC837082), adavosertib (NSC754352), prexasertib (NSC758257), carboplatin (NSC241240) and oxaliplatin (NSC266046), were obtained from the National Cancer Institute (NCI) Developmental Therapeutics Program Chemical Repository (21). The FDA-approved anticancer drug set is available from the Developmental Therapeutics Program at https://dtp.cancer.gov/organization/dscb/obtaining/. […] The stock solutions were prepared in dimethyl sulfoxide (DMSO, Sigma-Aldrich, St. Louis, MO, cat. D2650), except for the platinum compounds which were prepared in saline (Quality Biological, Gaithersburg, MD, cat. 114-055-101), at 800-fold the tested concentration and stored at -70 degrees C prior to their use. All drugs and investigational agents were tested over a range starting from a high concentration at or near the clinical Cmax and decreasing in half-log increments. If the clinical Cmax for an agent had not been determined, the highest concentration tested was 10 microM, except for SN-38, which was tested at a high concentration of 1 microM.
Cell Culture. All cells were maintained in an incubator at 37 degrees C and 5% CO2 with 95% humidity. The PDC lines were cultured according to standard operating procedures established by the NCI PDMR (https://pdmr.cancer.gov). Table 3 of the manuscript, lists the cell lines along with the number of the three cell types plated to form the mct-spheroids and media for tumor cell growth. After thawing, all PDC lines, except 997537-175-T-J1-PDC and 415267-285-R-J2-PDC, were cultured in Matrigel-coated flasks prepared with a working solution of 1X Ham's F-12 nutrient mix, without supplementation (Thermo Fisher Scientific, cat. 11765054), 100 U/mL penicillin-streptomycin (Thermo Fisher Scientific, cat. 15140122), and 2.5% Matrigel (Corning Inc., Corning, NY, cat. 354248) for the first three passages. The two PDC lines 997537-175-T-J1-PDC and 415267-285-R-J2-PDC were cultured on uncoated flasks. The 857933-349-R-J2-PDC line was cultured in 6C/Colon 1B media containing advanced DMEM/F-12 (Thermo Fisher Scientific, cat. 12634028), 10 mM HEPES (Thermo Fisher Scientific, cat. 15630080), 1X GlutaMAX supplement (Thermo Fisher Scientific, cat. 35050061), 0.1 mg/mL primocin (InvivoGen, San Diego, CA, cat. ant-pm-2), 10% defined fetal bovine serum, heat inactivated (HyClone Laboratories Inc., Logan, UT, cat. SH30070.03HI), 50% L-WRN conditioned media (ATCC, cat. CRL-3276), 1.25 mM N-Acetyl-L-cysteine (Sigma-Aldrich, cat. A9165), 10 mM nicotinamide (Sigma-Aldrich, cat. N0636), 1X B-27 supplement (Thermo Fisher Scientific, cat. 17504044), 1X N-2 supplement (Thermo Fisher Scientific, cat. […]

[1] = second compound 0.0316 µM, first compound 0.0316 µM
[2] = second compound 0.0316 µM, first compound 0.1 µM
[3] = second compound 0.1 µM, first compound 0.0316 µM
[4] = second compound 0.1 µM, first compound 0.1 µM
[5] = second compound 0.316 µM, first compound 0.0316 µM
[6] = second compound 0.316 µM, first compound 0.1 µM
[7] = second compound 1 µM, first compound 0.0316 µM
[8] = second compound 1 µM, first compound 0.1 µM
[9] = second compound 3.16 µM, first compound 0.0316 µM
[10] = second compound 3.16 µM, first compound 0.1 µM
[11] = second compound 10 µM, first compound 0.0316 µM
[12] = second compound 10 µM, first compound 0.1 µM
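Note: spheroids exposed to drugs for seven days before viability read.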
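Throughout, for viability, T/C: 100% = DMSO vehicle control wells.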

CC(C)n1c(=O)n(C)c2cnc3cc(F)c(-c4ccc(OCCCN5CCCCC5)nc4)cc3c21 + Nc1ccc(C#CCN(C(=O)Cc2ncc(C(F)(F)F)cc2C(F)(F)F)c2ccc(F)cc2)nn1
inactive: viability, T/C [1] 94.3% | viability, T/C [2] 84.3% | viability, T/C (second compound 0.0316 µM, first compound 0.316 µM) 132% | viability, T/C (second compound 0.0316 µM, first compound 1 µM) 82.9% | viability, T/C (second compound 0.0316 µM, first compound 3.16 µM) 90.5% | viability, T/C (second compound 0.0316 µM, first compound 10 µM) 79.4% | viability, T/C [3] 100% | viability, T/C [4] 102% | viability, T/C (second compound 0.1 µM, first compound 0.316 µM) 111% | viability, T/C (second compound 0.1 µM, first compound 1 µM) 84.9% | viability, T/C (second compound 0.1 µM, first compound 3.16 µM) 117% | viability, T/C (second compound 0.1 µM, first compound 10 µM) 90.6% | viability, T/C [5] 101% | viability, T/C [6] 99.4% | viability, T/C (second compound 0.316 µM, first compound 0.316 µM) 84.9% | viability, T/C (second compound 0.316 µM, first compound 1 µM) 101% | viability, T/C (second compound 0.316 µM, first compound 3.16 µM) 113% | viability, T/C (second compound 0.316 µM, first compound 10 µM) 98.4% | viability, T/C [7] 120% | viability, T/C [8] 77.8% | viability, T/C (second compound 1 µM, first compound 0.316 µM) 102% | viability, T/C (second compound 1 µM, first compound 1 µM) 113% | viability, T/C (second compound 1 µM, first compound 3.16 µM) 128% | viability, T/C (second compound 1 µM, first compound 10 µM) 85.7% | viability, T/C [9] 93.2% | viability, T/C [10] 97.7% | viability, T/C (second compound 3.16 µM, first compound 0.316 µM) 98.2% | viability, T/C (second compound 3.16 µM, first compound 1 µM) 92.4% | viability, T/C (second compound 3.16 µM, first compound 3.16 µM) 100% | viability, T/C (second compound 3.16 µM, first compound 10 µM) 94.4% | viability, T/C [11] 107% | viability, T/C [12] 88.8% | viability, T/C (second compound 10 µM, first compound 0.316 µM) 82.9% | viability, T/C (second compound 10 µM, first compound 1 µM) 107% | viability, T/C (second compound 10 µM, first compound 3.16 µM) 110% | viability, T/C (second compound 10 µM, first compound 10 µM) 109%
> 10 µM: IC50 (second compound 0.0316 µM) | IC50 (second compound 0.1 µM) | IC50 (second compound 0.316 µM) | IC50 (second compound 1 µM) | IC50 (second compound 3.16 µM) | IC50 (second compound 10 µM)

CC[C@@]1(O)C(=O)OCc2c1cc1n(c2=O)Cc2cc3c(CN(C)C)c(O)ccc3nc2-1 + Nc1ccc(C#CCN(C(=O)Cc2ncc(C(F)(F)F)cc2C(F)(F)F)c2ccc(F)cc2)nn1
> 0.1 µM: IC50 (second compound 0.0316 µM) | IC50 (second compound 0.1 µM) | IC50 (second compound 0.316 µM) | IC50 (second compound 1 µM) | IC50 (second compound 3.16 µM) | IC50 (second compound 10 µM)
inactive: viability, T/C (second compound 0.0316 µM, first compound 0.000316 µM) 73.9% | viability, T/C (second compound 0.0316 µM, first compound 0.001 µM) 96.8% | viability, T/C (second compound 0.0316 µM, first compound 0.00316 µM) 97.6% | viability, T/C (second compound 0.0316 µM, first compound 0.01 µM) 91.9% | viability, T/C [1] 84.3% | viability, T/C [2] 60.2% | viability, T/C (second compound 0.1 µM, first compound 0.000316 µM) 98.6% | viability, T/C (second compound 0.1 µM, first compound 0.001 µM) 101% | viability, T/C (second compound 0.1 µM, first compound 0.00316 µM) 113% | viability, T/C (second compound 0.1 µM, first compound 0.01 µM) 98.1% | viability, T/C [3] 96.7% | viability, T/C [4] 63% | viability, T/C (second compound 0.316 µM, first compound 0.000316 µM) 129% | viability, T/C (second compound 0.316 µM, first compound 0.001 µM) 130% | viability, T/C (second compound 0.316 µM, first compound 0.00316 µM) 99.2% | viability, T/C (second compound 0.316 µM, first compound 0.01 µM) 82.6% | viability, T/C [5] 87.4% | viability, T/C [6] 57% | viability, T/C (second compound 1 µM, first compound 0.000316 µM) 132% | viability, T/C (second compound 1 µM, first compound 0.001 µM) 117% | viability, T/C (second compound 1 µM, first compound 0.00316 µM) 77.8% | viability, T/C (second compound 1 µM, first compound 0.01 µM) 105% | viability, T/C [7] 86.7% | viability, T/C [8] 48% | viability, T/C (second compound 3.16 µM, first compound 0.000316 µM) 110% | viability, T/C (second compound 3.16 µM, first compound 0.001 µM) 110% | viability, T/C (second compound 3.16 µM, first compound 0.00316 µM) 96.9% | viability, T/C (second compound 3.16 µM, first compound 0.01 µM) 116% | viability, T/C [9] 84% | viability, T/C [10] 65.1% | viability, T/C (second compound 10 µM, first compound 0.000316 µM) 163% | viability, T/C (second compound 10 µM, first compound 0.001 µM) 117% | viability, T/C (second compound 10 µM, first compound 0.00316 µM) 111% | viability, T/C (second compound 10 µM, first compound 0.01 µM) 72.7% | viability, T/C [11] 103% | viability, T/C [12] 48.6%
